Laboratory results published in patent US7375132B2, “Compounds and methods for inhibiting cellular responses to hypoxia” (University of Mississippi, priority 2004, dated 2008).

Experiments:
HIF-1 [1] = assay: Cell-based HIF-1 luciferase reporter assay (pTK-HRE3-luc), HIF-1 activation by hypoxia; details: Homo sapiens; T47D cells; 1% O2/5% CO2/94% N2, 16 hr; read-out: IC50, inhibition of hypoxia-induced HIF-1 activity
From the text: To identify functional antagonists of HIF-1, the present inventors have established a cell-based reporter assay for inhibitors of HIF-1 in hypoxia responsive human breast carcinoma T47D cells. Breast cancer was chosen as the target for this drug discovery effort, due to the high incidence of this disease and the urgent need to identify chemotherapeutic agents that target tumor hypoxia, the comprehensive knowledge base of breast cancer etiology, and the availability of well-studied human breast carcinoma cell lines as in vitro models. In addition, HIF-1α overexpression is associated with advanced stages of breast cancer and poor prognosis. The activity of HIF-1 is monitored using a luciferase reporter under the control of HRE from the erythropoietin gene (pTK-HRE3-luc). Natural product-rich extracts (dissolved in DMSO) are evaluated for activities that inhibit HIF-1 activation by hypoxia (about: 1% O2/5% CO2/94% N2).
For these studies, exponentially grown T47D cells are transiently transfected with the pTK-HRE3-luc and pGL3-control (Promega) reporters and plated into 96-well plates. […]
About 24 hours after plating, a compound of Formula (I) is added to the transfected T47D cells. […] At the end of incubation, the cells are harvested and both luciferase activities determined using a Luciferase Assay System (Promega). […]

HIF-1 [2] = assay: Cell-based HIF-1 luciferase reporter assay, HIF-1 activation by iron chelator 1,10-phenanthroline (chemical hypoxia); set-up: species or system human; details: T47D cells; 1,10-phenanthroline at 10 μM; compound about 3 μM (FIG. 3)
Protocol: For these studies, exponentially grown T47D cells are transiently transfected with the pTK-HRE3-luc and pGL3-control (Promega) reporters and plated into 96-well plates. The pGL3-control reporter contains a modified reporter (cloned from Photinus pyralis) under the control of a SV40 early promoter and provides low-level, constitutive expression in mammalian cells as internal control.
About 24 hours after plating, a compound of Formula (I) is added to the transfected T47D cells. Following incubation at about 37° C. for about 30 minutes, the cells are exposed to hypoxic conditions (1% O2/5% CO2/94% N2) or chemical hypoxia (iron chelator 1,10-phenanthroline at 10 μM) for 16 hr. At the end of incubation, the cells are harvested and both luciferase activities determined using a Luciferase Assay System (Promega). Luciferase activity from the pTK-HRE3-luc reporter was compared to luciferase activity from the pGL3-control reporter.

T47D cells [3] = assay: Cell viability by Neutral Red assay under hypoxic conditions; type: cell-based, human; details: similar hypoxic conditions
From the text: The data presented in FIGS. 2 and 3 are averages from one representative experiment performed in quadruplicate and the bars represent standard errors. Accordingly, a compound of Formula (I) is shown to have a selective effect on physiological hypoxia-induced HIF-1 activation, relative to “chemical hypoxia”-induced HIF-1. To rule out false positives associated with cytotoxicity, the effects of Formula (I) on cell viability are examined.

secreted VEGF protein [4] = assay: Secreted VEGF protein ELISA after hypoxic treatment; type: cell-based, human; details: concentrations of 1 μM and above; hypoxic treatment of T47D cells
Protocol: (§1) Since secreted VEGF protein is the bioactive form, compounds that can reduce the level of secreted VEGF protein represent potential tumor angiogenesis inhibitors. Thus, compounds that can inhibit both hypoxic activation of HIF-1 and hypoxic induction of secreted VEGF protein represent “true” leads that target tumor hypoxia. The effects of compounds of the present invention on hypoxic induction of secreted VEGF protein are examined in T47D cells. Exponentially grown T47D cells were plated at the density of about 30,000 cells/well into 96-well plates. Compound treatment and hypoxic exposure were the same as described. Following incubation, secreted VEGF protein concentrations in the conditioned media are determined by ELISA (R & D Systems) and the data normalized by the number of viable cells. […] Therefore, in addition to its effect on HIF-1, compounds of the present invention have a potential therapeutic application as an agent to inhibit tumor angiogenesis.

secreted VEGF protein [5] = assay: Secreted VEGF protein ELISA after 1,10-phenanthroline (chemical hypoxia); type: cell-based, human; details: T47D cells pretreated with 1,10-phenanthroline (chemical hypoxia)
Protocol: as §1

HIF-1α protein = assay: Western blot of nuclear HIF-1α protein induced by hypoxia; type: cell-based, human; details: T47D cells; hypoxia about 4 hours; nuclear extract Western blot
Protocol: Since the availability of the oxygen-regulated HIF-1α protein determines the biological activity of HIF-1 and hypoxia induces HIF-1α protein, the effect of compounds of the present invention on the induction of HIF-1α protein are examined in T47D cells. Briefly, exponentially grown T47D cells are exposed to a compound of Formula (I) for about 30 minutes. The incubation then continues for about 4 hours under hypoxic conditions. Nuclear extracts are prepared from control and treated cells. The HIF-1αand HIF-1β proteins in the nuclear extract samples are detected by Western blot, using HIF-1αand HIF-1β specific antibodies (Novus Biologicals). […] Significant inhibition of HIF-1α protein is observed at about 100 nM and complete inhibition is observed at about 1 μM. It is reasonable to conclude that the selectivity of the compounds of the present invention towards hypoxia-activated HIF-1 is caused by selective blockade of the hypoxic induction of HIF-1α protein.

T47D cells [6] = assay: T47D cell survival under hypoxic conditions (FIG. 8); type: cell-based, human
[7] = system: mitochondrial electron transport pathway; assay: Mitochondrial oxygen consumption (FIG. 9); type: biochemical; details: in the presence of glutamate/malate, ADP; increasing amounts of compound
Protocol: FIG. 9 is a graph showing that a compound of formula 1 inhibits the mitochondrial electron transport pathway. Mitochondrial oxygen consumption was measured, in this example, in the presence of glutamate/malate, ADP and increasing amounts of a compound of formula 1.

- IC50 (HIF-1 [1]): ~400 nM
Structure (SMILES): CC1=CC(O)C(C(C)CCC2C(C)C3(C)CCC2(C)O3)CC1 (stereo not drawn) [Formula (I), LAURENDITERPENOL]
- effect on iron chelator-induced HIF-1 (HIF-1 [2]): no statistically significant effect
- effect on T47D cell viability (T47D cells [3]): marginal decrease
- decrease in level of secreted VEGF protein (secreted VEGF protein [4]): about 60%
- effect on secreted VEGF protein levels (secreted VEGF protein [5]): do not affect
- concentration at which complete inhibition of HIF-1α protein is observed (HIF-1α protein): about 1 μM
- concentration at which significant inhibition of HIF-1α protein is observed (HIF-1α protein): about 100 nM
- effect on T47D cell survival (T47D cells [6]): significantly reduced
- effect on mitochondrial electron transport pathway (oxygen consumption) [7]: inhibits
